Measurements as given in the METLIN SMRT retention time set (Domingo-Almenara et al. 2019).

test: gradient 5% acetonitrile 3 min, to 50% in 2 min, to 85% in 15 min, held 3 min, 100 µL/min; settings: column: Zorbax Extend-C18 2.1 x 50 mm; eluents: water / acetonitrile, 0.1% formic acid
Outline: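 Retention times come from adduct peaks that were picked computationally and then checked by hand. The standards, pure and pooled in mixtures of ~100 molecules, were run on a Zorbax Extend-C18 column (2.1 × 50 mm, 1.8 μm) at 100 μL/min with water and acetonitrile, each with 0.1% formic acid. Detection was by quadrupole time-of-flight mass spectrometry in positive and negative ionization mode, with a dead volume of 40 μL and a dwell volume of 900 μL.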

| SMILES | RP-LC retention time |
| --- | --- |
| COC1CCC12CCN(C(=O)CC1CCN(C(C)=O)CC1)CC2 (configuration not stated) | 658 s |
| COC[C@@H](NC(C)=O)C(=O)NCc1ccccc1 | 641 s |
| O=S(=O)(c1cccc2cccnc12)N1CCCn2nc(-c3cccs3)cc2C1 | 900 s |
| O=C(OCc1ccncc1)c1cn(-c2cccc(Cl)c2)c(=O)c2ccccc12 | 770 s |
| COc1ccc(CNC(=O)C2CCN(S(C)(=O)=O)c3cc(Cl)ccc3O2)cc1 (configuration not stated) | 877 s |
| Cc1cccc(N2C(=O)CN(CCc3ccc(F)cc3)[C@H]3CS(=O)(=O)C[C@H]32)c1 | 839 s |
| Cn1cnc(S(=O)(=O)N2c3ccccc3CC2c2nnc(C3CCOCC3)o2)c1 (configuration not stated) | 680 s |
| Cc1nc2c(C(=O)NCCN3CCOCC3)cnn2c(C)c1Cc1ccccc1Cl | 678 s |
| CCOc1ccc(-n2ccnc(NC(=O)Nc3ccc(C)c(C)c3)c2=O)cc1 | 1090 s |
| Cc1ccc(S(=O)(=O)N2CCC(n3cnc4c(C)cccc4c3=O)CC2)c(C)c1 | 1060 s |
| O=C(NCCOc1cccc2cccnc12)c1cccc(-n2cnnn2)c1 | 574 s |
| CCOc1ccc(-c2noc(-c3nn(-c4ccccc4)ccc3=O)n2)cc1 | 919 s |
| Cc1nc(-c2ccc(-c3noc(C(C)NC(=O)c4ccccc4)n3)cc2)cs1 (configuration not stated) | 963 s |
| O=C(Nc1ccccc1)N1CCC(n2c(-c3ccoc3)nc3cccnc32)C1 (configuration not stated) | 712 s |
| Cc1cc(C)cc(C(=O)N2CCC(n3c(-c4ccoc4)nc4cccnc43)C2)c1 (configuration not stated) | 804 s |
| CSc1cccc(NC(=O)C2CCN(C(=O)C3Sc4ccccc4NC3=O)CC2)c1 (configuration not stated) | 814 s |
| CC(C)(C)NC(=O)Cc1cccn1-c1ccc(F)cc1 | 925 s |
| Cc1oc(C2CCN(S(=O)(=O)Cc3ccccc3)CC2)nc1C(=O)N1CCOCC1 | 759 s |
| Cc1cnn(Cc2nc(-c3ccc(NC(=O)C4CCCCC4)cc3)oc2C)c1 | 881 s |
| O=C(NC1CC1)c1cc(-c2cccc(F)c2)ns1 | 882 s |
| Cc1nn(-c2cc(N3CCCC3)ncn2)c(C)c1CCC(=O)NCc1ccco1 | 686 s |
| CC(C)(C)c1ccc(-c2noc(-c3nn(-c4cccc(F)c4)ccc3=O)n2)cc1 | 1140 s |
| Cc1cc(C2CCCN2C(=O)Nc2cccc(Cl)c2C)on1 (configuration not stated) | 794 s |

| SMILES | RP-LC retention time |
| --- | --- |
| CCN1CCCCc2cc(C(=O)NCC(F)F)sc21 | 892 s |
| Cc1ccccc1-c1cc(C(=O)N2CCC(NC(=O)C3CCCC3)CC2)[nH]n1 | 712 s |
| CCc1nc2c(NC(=O)c3cc(F)cc(F)c3)cccn2n1 | 851 s |
| Cc1ccc(NC(=O)C2CCN(S(=O)(=O)c3cn(C(C)C)cn3)CC2)nc1 | 626 s |
| COc1cc(-c2noc(CN3C(=O)COc4ccc(C)cc43)n2)cc(OC)c1OC | 985 s |
| Cc1nccn1Cc1noc(-c2ccccc2Cl)n1 | 615 s |
| CCOc1ccc(Cc2nc(-c3ccc4c(c3)nc(C)c(=O)n4C)no2)cc1OCC | 970 s |
| CCOc1ccc(CC(=O)N2C[C@@H]3C[C@H]2C[C@@H]3NC(=O)c2cccs2)cc1 | 782 s |
| CCCNC(=O)N(C)CCc1noc(COc2ccc(Cl)cc2)n1 | 833 s |
| Cc1nc(-c2csc(S(=O)(=O)N3CCCC(C(=O)N4CCC5(CC4)OCCO5)C3)c2)no1 (configuration not stated) | 798 s |
| Cc1ccc(-c2nc3ccccn3c2NC(=O)Nc2cc(F)ccc2F)cc1 | 707 s |
| Cc1ccc(Cl)cc1NC(=O)NCCc1cn(CC(C)C)c2ncccc12 | 946 s |
| Cn1cnc2c(C(=O)N3CCN(c4ccccn4)CC3)nn(-c3ccccc3)c2c1=O | 599 s |
| Cc1cccc(CNS(=O)(=O)c2cc(-c3[nH]ncc3C(=O)N3CCCC3)oc2C)c1 | 744 s |
| O=C(NC1CCCCCCC1)C1CCN(C(=O)c2ccccc2F)CC1 | 855 s |
| CCC(=O)N1CCc2cc(C(=O)NC3CCCC3)ccc21 | 744 s |
| CCOc1ccccc1NC(=O)Cn1ccnc1-c1ccnc(N2CCOCC2)c1 | 638 s |
| Cc1noc2ncnc(N3CCCC(C(=O)N4CCN(C5CCCCC5)CC4)C3)c12 (configuration not stated) | 594 s |
| O=C1CC(c2nc(-c3ccc4c(c3)OCO4)no2)CN1c1ccc2c(c1)OCO2 (configuration not stated) | 862 s |
| O=C(NCCc1ccco1)c1nc(Nc2ccc(F)cc2)c2ccccc2n1 | 784 s |
| O=C1C(c2ccncc2)N(CCCc2ccccc2)C(=O)CN1c1ccccc1 (configuration not stated) | 719 s |
| CCOC(=O)c1c(CN2CCOCC2)n(C)c2ccc(O)cc12 | 578 s |
| COC(=O)Cn1c(C2CC(=O)N(c3ccc(OC)cc3)C2)nc2ccccc21 (configuration not stated) | 709 s |

| SMILES | RP-LC retention time |
| --- | --- |
| COCCc1noc(C2CN(C(=O)c3cnc(C)cn3)C2)n1 | 636 s |
| CC(CCNC(=O)c1ccc2ccnc(N3CCN(c4ccc(F)cc4)CC3)c2c1)N1CCCC1 (configuration not stated) | 597 s |
| Cc1nc2cc(-c3noc(Cc4cccc5ccccc45)n3)ccc2o1 | 1130 s |
| COc1ccc(S(=O)(=O)N2CCC(OCCOc3ccccc3)CC2)cc1 | 1070 s |
| CCC(=O)Nc1c(C)noc1/C=C\c1ccc(S(=O)(=O)N2CCCCC2C)cc1 (configuration not stated) | 915 s |
| CNC(=O)c1cn(-c2ccc(S(=O)(=O)N3CCCC3)cn2)cn1 | 622 s |
| Cn1c(=O)c(-c2noc(C(=O)N3CCN(c4ccccn4)CC3)n2)nn(-c2ccccc2)c1=O | 637 s |
| COc1ccc(-c2nnc(-c3ccccc3)o2)cc1S(=O)(=O)N1CCCCCC1 | 1070 s |
| CCCc1ccc(C(=O)CC2(O)C(=O)Nc3ccccc32)cc1 (configuration not stated) | 831 s |
| COCCN(C)C(=O)c1cc2c(s1)N(C)CCCC2 | 770 s |
| Cc1cccc(CN2CCCn3nc(C(=O)NC(C)Cc4ccco4)cc3C2=O)c1 (configuration not stated) | 919 s |
| COc1ccc(C2Nc3ccccc3NC3=C2C(=O)CC(c2cccs2)C3)cc1OC (configuration not stated) | 730 s |
| Cc1ccc(C(=O)N2CCC3(CC2)NC(=O)c2cc(F)ccc2N3C)cc1 | 776 s |
| O=C(NCc1cccs1)C1CC(=O)N(c2ccc3c(c2)CCN3C(=O)C2CC2)C1 (configuration not stated) | 710 s |
| COc1ccc(NC(=O)Cn2nc3c(N4CCSCC4)nccn3c2=O)cc1OC | 720 s |
| O=C(CN1CCN(Cc2ccc(F)cc2)C1=O)NCCc1ccncc1 | 596 s |
| CCOc1ccc(CNC(=O)c2ccc3c(c2)N(C)C(=O)C2CCCCN32)cc1OC (configuration not stated) | 774 s |
| Cc1ccc(C)c(NC(=O)Nc2cccc(-c3cn4cccnc4n3)c2)c1 | 696 s |
| O=C(CSc1ncnc2ccccc12)NCc1ccccc1 | 708 s |
| O=C(Nc1ccc(F)cc1)Nc1nccn(-c2ccc(Br)cc2)c1=O | 985 s |
| CN1c2cc(C(=O)N3CCN(c4ccccc4F)CC3)ccc2C(=O)N2CCCCC21 (configuration not stated) | 877 s |
